In brackets after ≈: the same amount, converted by molar mass.
Assays:
Assay type in all cases: cell-based
[1] = tested on: A. fumigatus MF4839; assay: Inhibitor dilution assay in microtiter format, filamentous fungi: A. fumigatus MF4839; details: Aspergillus fumigatus; A. fumigatus MF4839, 42 hours, 28° C.; read-out: Minimum Inhibitory Concentration
Method: (§1) The compounds are particularly active towards filamentous fungi and yeasts including Candida albicans and Crypt. neoformans. The sensitivity of filamentous fungi and yeast was determined using inhibitor dilution assays in microtiter format. The compounds were dissolved in DMSO at 2 mg/ml and serially diluted in 0.1 M phosphate buffer, pH 7.0 in the microtiter dish from 100 to 0.006 μg/ml. A standardized spore suspension for testing the filamentous fungi was prepared by inoculating Antibiotic Medium #3 containing 1.5% agar with spores such that 1.5×10^3 colony forming units were added per we11. The microtiter wells were filled with 50 μl of buffer containing compound and 50 μl of inoculated medium. The sensitivity of yeasts was determined by inoculating yeast nitrogen base containing 1% dextrose (YNB/G) with aliquots of an overnight yeast culture grown in Yeast Morphology (YM) media at 35° C. and diluting in YNB/G to yield a final concentration of 1.5-7.5×10^3 colony forming units/well. One hundred fifty μl of inoculated media was added per well. To test the sensitivity of yeast, compound was solubilized in 10 percent aqueous DMSO at 2.56 mg/ml. The compound was diluted serially in YNB/G from 128 to 0.06 μg/ml. The wells were filled with 150 μl of drug containing media. […]

[2] = tested on: A. flavus MF383; assay: Inhibitor dilution assay in microtiter format, filamentous fungi: A. flavus MF383; details: Aspergillus flavus; A. flavus MF383, 42 hours, 28° C.; read-out: Minimum Inhibitory Concentration
Method: as §1

[3] = tested on: A. niger MF442; assay: Inhibitor dilution assay in microtiter format, filamentous fungi: A. niger MF442; details: Aspergillus niger; A. niger MF442, 42 hours, 28° C.; read-out: Minimum Inhibitory Concentration
Method: as §1

[4] = tested on: Fus. oxysproum MF4014; assay: Inhibitor dilution assay in microtiter format, filamentous fungi: Fus. oxysproum MF4014; details: Fus. oxysproum MF4014, 42 hours, 28° C.; read-out: Minimum Inhibitory Concentration
Method: as §1

[5] = tested on: Pen. italicum MF2819; assay: Inhibitor dilution assay in microtiter format, filamentous fungi: Pen. italicum MF2819; details: Penicillium italicum; Pen. italicum MF2819, 42 hours, 28° C.; read-out: Minimum Inhibitory Concentration
Method: as §1

[6] = tested on: Coch. miyabeanus MF4626; assay: Inhibitor dilution assay in microtiter format, filamentous fungi: Coch. miyabeanus MF4626; details: Bipolaris oryzae, MF4626, 42 h, read-out: Minimum Inhibitory Concentration
Method: as §1

[7] = tested on: C. albicans MY1055; assay: Inhibitor dilution assay in microtiter format, yeast MIC: C. albicans MY1055; details: Candida albicans; C. albicans MY1055, 24 to 48 hours, 35° C.; read-out: Minimum Inhibitory Concentration
Method: as §1

[8] = tested on: C. tropicalis MY1012; assay: Inhibitor dilution assay in microtiter format, yeast MIC: C. tropicalis MY1012; details: Candida tropicalis; C. tropicalis MY1012, 24 to 48 hours, 35° C.; read-out: Minimum Inhibitory Concentration
Method: as §1

[9] = tested on: C. parapsilosis MY1010; assay: Inhibitor dilution assay in microtiter format, yeast MIC: C. parapsilosis MY1010; details: Lodderomyces parapsilosis; C. parapsilosis MY1010, 24 to 48 hours, 35° C.; read-out: Minimum Inhibitory Concentration
Method: as §1

[10] = tested on: Crypt. neoformans MY1051; assay: Inhibitor dilution assay in microtiter format, yeast MIC: Crypt. neoformans MY1051; details: Cryptococcus neoformans; Crypt. neoformans MY1051, 24 to 48 hours, 35° C.; read-out: Minimum Inhibitory Concentration
Method: as §1

[11] = tested on: C. albicans MY1055; assay: Minimum fungicidal concentration, yeast: C. albicans MY1055; details: Candida albicans, no growth or no more than three colonies
Method: as §1

[12] = tested on: C. tropialis MY1012; assay: Minimum fungicidal concentration, yeast: C. tropialis MY1012; details: no growth or no more than three colonies
Method: as §1

[13] = tested on: C. parasilosos MY1010; assay: Minimum fungicidal concentration, yeast: C. parasilosos MY1010; details: no growth or no more than three colonies
Method: as §1

[14] = tested on: Crypt. neoformans MY1051; assay: Minimum fungicidal concentration, yeast: Crypt. neoformans MY1051; details: Cryptococcus neoformans, no growth or no more than three colonies
Method: as §1

[15] = tested on: T. Mentagrophytes MF4864; assay: Inhibitor dilution assay in microtiter format, filamentous fungi: T. Mentagrophytes MF4864; details: Trichophyton mentagrophytes; T. Mentagrophytes MF4864, 42 hours, 28° C.; read-out: Minimum Inhibitory Concentration
Method: as §1

Row | MIC [15] [µg/mL] | Compound | MIC [1] [µg/mL] | MIC [2] [µg/mL] | MIC [3] [µg/mL] | MIC [4] [µg/mL] | MIC [5] [µg/mL] | MIC [6] [µg/mL] | MIC [7] [µg/mL] | MIC [8] [µg/mL] | MIC [9] [µg/mL] | MIC [10] [µg/mL] | MFC [11] [µg/mL] | MFC [12] [µg/mL] | MFC [13] [µg/mL] | MFC [14] [µg/mL]
1 | – | CC=CCCCCC=CCCCCC(=O)OC1C(O)C2(CCC(C)C(O)C(C)CC=Cc3ccccc3)OC(C(=O)O)C(O)(C(=O)O)C1(C(=O)O)O2 (stereo not shown) [Compound A] | 0.098 (≈ 0.134 µM) | 0.098 (≈ 0.134 µM) | 100 (≈ 137 µM) | > 100 | 0.025 (≈ 0.0342 µM) | 1.6 (≈ 2.19 µM) | 8 (≈ 10.9 µM) | 4 (≈ 5.47 µM) | 4 (≈ 5.47 µM) | 4 (≈ 5.47 µM) | 4 (≈ 5.47 µM) | 1 (≈ 1.37 µM) | 1 (≈ 1.37 µM) | 2 (≈ 2.74 µM)
2 | > 128 | CC=CCCCCC=CCCCCC(=O)OC1C(O)C2(CCC(C)C(O)C(C)CC=Cc3ccccc3)OC(C(=O)OC)C(O)(C(=O)OC)C1(C(=O)OC)O2 (stereo not shown) [Compound B] | > 128 | > 128 | – | – | – | – | > 128 | > 128 | > 128 | > 128 | > 128 | > 128 | > 128 | > 128
